The values that follow come from US4463001A, “6-Substituted 6H-dibenzo[b,d]pyran derivatives and process for their preparation” (Farmitalia Carlo Erba S.p.A., priority 1980, dated 1984).

The nature of series [1]: orientative acute toxicity (LD50) in mice. The settings on record: mouse, in vivo, single oral administration, assessed on seventh day. The protocol: The toxicity of the compounds of the invention is negligible. Nine hours food deprived mice were treated orally with single administration of increasing doses, then housed and normally fed. The orientative acute toxicity (LD50) was assessed on the seventh day after the treatment and, for example, the following data were obtained: […]

The subject of series [2] is antibody response against sheep red blood cells (SRBC). The series can be described thus: antibody response induced in mice by suboptimal dose of sheep red blood cells (immunomodulating activity). The class given is in vivo, mice (female CD-1). The settings on record: i.p., 50 and 5 mg/kg two hours before antigen, vs control group, six days later. The method, then: Their immunomodulating activity is, for example, proven by their capacity to modify the antibody response induced in mice by a suboptimal dose of sheep red blood cells (SRBC) injected by intraperitoneal route (i.p.).
Groups of ten female CD-1 mice were injected i.p. with 2×10^6 SRBC as antigen. The tested compounds were administered i.p. at two dosage levels: 50 and 5 mg/kg body weight, two hours before the administration of the antigen. A control group of mice received SRBC and saline instead of the compounds. Six days later the mice were killed and antibody titres against SRBC determined in their sera, according to Williams C. A.: Methods in Immunology and Immunochemistry, C. A. Williams and M. W. Chase, Eds. Academic Press, New York, Vol. II, page 152, 1977.

The next series concerns restraint ulcers. As to the kind of experiment: inhibition of restraint ulcers in rats (anti-ulcerogenic activity). The settings on record: po, 4 h; rat, p.o., approximate ED50; read-out: Antiulcerogenic activity ED50 p.o. The class given is in vivo, rat (Sprague-Dawley male). From the text: The compounds of the invention are also useful for reducing the undesirable gastrointestinal side-effects resulting from systemic administration of anti-inflammatory prostaglandin synthetase inhibitors and may be, therefore, used for this purpose in association with them. The anti-ulcerogenic activity of the compounds of the invention is shown, e.g., by the fact that they are active in the test of the inhibition of restraint ulcers in rats, according to the method of Bonfils et al., (Therapie, 1960, 5, 1096; Jap. J. Pharmac. 1945, 43, 5).
According to this method, the tested compounds were administered per os (p.o.) one hour before the immobilization. Six Sprague-Dawley male rats (100-120 g) fasted 24 hours were used for the experiment: a square flexible small-mesh wire netting was used for the immobilization and 4 hours after the immobilization the rats were sacrificed, their stomachs were removed and the lesions counted under a dissecting microscope.

Another series deals with gastric secretion. The series can be described thus: inhibition of gastric secretion in pylorus-ligated rats (antisecretory activity, method of Shay). The class given is in vivo, rat (Sprague-Dawley male). The following applies: 4 h; rat, intraduodenal, approximate ED50; read-out: Antisecretory activity ED50 i.d. The method, then:
According to this method the tested compounds were injected intraduodenally (i.d.) at the time of ligature.
Six Sprague-Dawley male rats (110-130 g) were used for each group. Twenty-four hours before the test, the rats were deprived of food but the water supply was maintained. On the day of the operation, the pylorus was ligated under light ether anaesthesia. Four hours after the ligature, the rats were sacrificed. The stomach secretion was collected and centrifugated at 3500 r.p.m. for 10 minutes and the volume, less sediment, was determined.
The amount of free hydrochloric acid in the gastric juice was determined by titration against 0.01N sodium hydroxide, to an end point of pH 7.

Series [3] deals with syndrome induced by oxotremorine. As to the kind of experiment: antagonism against syndrome induced by oxotremorine in mice (anti-cholinergic activity). The following applies: Mus musculus, po, approximate ED50, read-out: Anticholinergic activity ED50 p.o. The class given is in vivo, mice (male). The method, then:
Considering that many anti-ulcer agents display, as does atropine, a remarkable but undesired anti-cholinergic activity, the compounds of the invention were also assessed for their antagonism against syndrome induced by oxotremorine in mice, according to the method described by Leszkovszky G. P. and Tardos L. (Europ. J. Pharmac. 1971, 15, 310). According to this method 5 male mice, 20-25 g body weight, were used for each group.

Series [4] is described as follows: lipid-lowering activity in rats fed hypercholesterolaemic diet (Experiment 1). The class given is in vivo, rat (Icem:CER (SPF Caw) male). The method, then: (§1) The activity of the compounds of the invention was evaluated: (1) on groups of Icem:CER (SPF Caw) male rats, fed for six days with hypercholesterolaemic diet according to C. E. Day: Shur P. E., Shultz H. R., Day C. E. (Ed.) Atherosclerosis and drug discovery Plenum Pub. Corp., 217 (1976): Experiment 1; or (2) or groups of Iva-SIV (SPF) male rats fed standard MS/K Altromin® diet: Experiment 2. MS/K Altromin is a trade mark.
(§2) The tested compounds were suspended in Methocel (methyl-cellulose, a 0.5% solution in water) and administered by stomach tube at the dose of 50 mg/kg for 4 days in both the experiments.
(§3) Groups of animals were treated with the suspending agent only (control groups).
(§4) The total serum cholesterol was determined with the method of Allain, Clin. Chem., 1974, 20, 470.
(§5) The total serum HDL cholesterol was determined according to Demacker P. N. H., Clin. Chem., 1977, 23, 1238.
(§6) The total β-lipoprotein cholesterol was determined by difference between total serum cholesterol and HDL cholesterol. Statistical analysis in experiment 1 and 2 was performed by the Student's t test for independent samples or by the Cochran's test when the variances were not homogeneous at the F ratio test [Bliss C. I., Statistics in Biology, Vol. 1, page 213 McGraw Hill Book Company, New York 1967; Cochran W. G., Cox C. H., Experimental designs-J. Willey and Sons Inc., New York, II Ed. (1968), page 100].

Series [5] can be described thus: lipid-lowering activity in rats fed standard MS/K Altromin diet (Experiment 2). The class given is in vivo, rat (Iva-SIV (SPF) male). The method, then:
as §1, §2, §3, §4
The serum triglycerides were determined with the method of Mendez, J. Clin. Chem., 1975, 21, 768.
as §5, §6

For series [6], the system named is influenza virus strain APR 8. As to the kind of experiment: influenza virus experimental infection in mice. The class given is in vivo, CD-1 mice. The settings on record: single dose one or two days after the infection. The method, then: (§7) The antiviral activity of the compound of the invention was, for example, evaluated on influenza and herpes simplex viruses experimental infections in mice.
(§8) Groups of CD-1 mice were infected intranasally with the strain APR 8 of influenza virus and other groups were infected intraperitoneally with the strain 1RC of herpes simplex virus. The tested compounds were administered through various routes, e.g. intraperitoneally, subcutaneously, orally.
(§9) The effect of the tested compounds, against the influenza virus, was evaluated on the basis of the number of lung lesions and, against the herpes infection, the parameter considered was the protection from mortality since, as is known, herpes simplex infection is lethal in mice.

For series [7], the system named is herpes simplex virus strain 1RC. The series can be described thus: herpes simplex virus experimental infection in mice. The class given is in vivo, CD-1 mice. The following applies: single dose one or two days after the infection. The method, then: as §7, §8, §9
Setting [8] is: Experiment 2, 50 mg/kg/os, vs control.

Molecule `CC1(C#N)Oc2ccccc2-c2ccccc21` (centres unmarked) [FCE 20519, 6H,6-cyano-6-methyl-dibenzo[b,d]pyran] showed an LD50 at 168 h in series [1] greater than 800 mg/kg.
As to `N#CC1(CO)Oc2ccccc2-c2ccccc21` (centres unmarked) [FCE 20518, 6H,6-cyano-6-hydroxymethyl-dibenzo[b,d]pyran], the LD50 at 168 h in series [1] is greater than 800 mg/kg.
On to `O=C(O)C1(CO)Oc2ccccc2-c2ccccc21` (centres unmarked) [FCE 20561, 6H,6-carboxy-6-hydroxymethyl-dibenzo[b,d]pyran], for which the LD50 at 168 h in series [1] was greater than 800 mg/kg.
`CC1(C(=O)O)Oc2ccc(Cl)cc2-c2ccccc21` (centres unmarked) [FCE 20770, 6H,6-carboxy-6-methyl-2-chloro-dibenzo[b,d]pyran] showed a median lethal dose (LD50) at 168 h in [1] of 400 to 800 mg/kg.
Consider `CCN(CC)CCOC(=O)C1Oc2ccccc2-c2ccccc21` (centres unmarked) [FCE 21849, 6H,6-(2-diethylaminoethoxycarbonyl)-dibenzo[b,d]pyran], for which the “antibody titres against SRBC” value in [2] is “increased the antibody titers several fold as compared to control group”. In series [1], this molecule returned a 50% lethal dose (LD50) at 168 h of 400 to 800 mg/kg.
For the molecule `CC1(C(=O)O)Oc2ccccc2-c2ccccc21` (centres unmarked) [FCE 20562, 6H,6-carboxy-6-methyl-dibenzo[b,d]pyran], in series [1], the median lethal dose (LD50) at 168 h is 400 to 800 mg/kg.
`N#CC1Oc2ccccc2-c2ccccc21` (centres unmarked) [FCE 20493, 6H,6-cyano-dibenzo[b,d]pyran] showed a median lethal dose (LD50) at 168 h in series [1] of 400 to 800 mg/kg.
`CCOC(=O)C1Oc2ccccc2-c2ccccc21` (centres unmarked) [FCE 20521, 6H,6-ethoxycarbonyl-dibenzo[b,d]pyran] yielded an LD50 at 168 h in series [1] greater than 800 mg/kg.
For the molecule `c1ccc2c(c1)OC(N1CCNCC1)c1ccccc1-2` (centres unmarked) [FCE 20618, 6H,6-(1-piperazinyl)-dibenzo[b,d]pyran], the ED50 in the series on restraint ulcers is 7 mg/kg; in the series with gastric secretion, 1.5 mg/kg; in series [3], greater than 100 mg/kg. In series [1], this molecule had a 50% lethal dose (LD50) at 168 h of 400 to 800 mg/kg.
In the case of `O=C(O)CC1Oc2ccccc2-c2ccccc21` (centres unmarked) [FCE 20881, 6H,6-carboxymethyl-dibenzo[b,d]pyran], the “Serum HDL total cholesterol, mean ± S.E.” value in series [4] (Experiment 1, 50 mg/kg/os for 4 days, hypercholesterolaemic diet, control 13.2 ± 1.8) amounted to 23.2 ± 0.5 mg/100 ml. Moreover, the “Total serum cholesterol, mean ± S.E.” value in [4] (Experiment 1, 50 mg/kg/os for 4 days, hypercholesterolaemic diet, control 459.6 ± 51.7) is reported as 240.0 ± 20.7 mg/100 ml. The “effect on total serum cholesterol and total HDL cholesterol” value in [4] (Experiment 1, in words) is “decrease the total serum cholesterol and to increase the total HDL cholesterol”. Also, the “β-lipoprotein cholesterol, mean ± S.E.” value in [5] (Experiment 2, 50 mg/kg/os for 4 days, standard diet, control 27.1 ± 1.1) is 20.5 ± 0.8 mg/100 ml. Besides, the “Total serum cholesterol, mean ± S.E.” value in [5] (Experiment 2, 50 mg/kg/os for 4 days, standard diet, control 66.3 ± 1.7) is recorded as 57.7 ± 1.5 mg/100 ml. Moreover, the “Serum triglycerides (printed "trygylcerides"), mean ± S.E.” value in [5] (Experiment 2, 50 mg/kg/os for 4 days, standard diet, control 228.7 ± 18.9) was determined as 168.3 ± 13.4 mg/100 ml. Also, in series [5] (setting [8]), the “Serum triglycerides, Student's t test result” value was “S (significant (p <0.05))”; the “Total serum cholesterol, Student's t test result” value is reported as “HS (highly significant (p <0.01))”; the “β-lipoprotein cholesterol, Student's t test result” value was “HS (highly significant (p <0.01))”. Moreover, the “effect on total serum cholesterol, β-lipoprotein cholesterol and serum triglycerides” value in series [5] (Experiment 2, in words) was “decrease the total serum cholesterol, in particular β-lipoprotein cholesterol and serum triglycerides”. In series [1], the 50% lethal dose (LD50) at 168 h fell in the range of 400 to 800 mg/kg.
On to `CN(C)CCOC(=O)C1Oc2ccccc2-c2ccccc21` (centres unmarked) [FCE 20696, 6H,6-(2-dimethylaminoethoxycarbonyl)-dibenzo[b,d]pyran], for which the “antibody titres against SRBC” value in series [2] is on record as “increased the antibody titers several fold as compared to control group”. Moreover, the “number of lung lesions” value in series [6] was “reducing substantially the number of lung lesions”. In addition, the “protection from mortality (animals protected from death)” value in [7] is “up to 45%”. Moreover, the LD50 at 168 h in series [1] was in the range of 400 to 800 mg/kg.
For the molecule `NCC1Oc2ccccc2-c2ccccc21` (centres unmarked) [FCE 20524, 6H,6-aminomethyl-dibenzo[b,d]pyran], the ED50 in the series on restraint ulcers is 4.8 mg/kg; with gastric secretion, 6 mg/kg; in [3] it was greater than 100 mg/kg. The same molecule returned an LD50 at 168 h in series [1] of 400 to 800 mg/kg.

Broadly, the LD50 is the dose at which mortality reaches 50%. In general, ED50 refers to the midpoint of the dose-response relation.
